Test results taken from ChEMBL document CHEMBL3526109 (Drug Metab Dispos, 2011).

Tests used:
[1] = Drug level in Sprague-Dawley rat urine treated with [14C]brivanib alaninate at 100 mg/kg, po administered as single dose via gavage by mass spectrometry; assay type: ADME, organism-based; details: in vivo
Homo sapiens [2] = assay: Drug uptake in human plasma treated with [14C]brivanib alaninate assessed as AUC (0 to 12 hrs) of total radio activity at 800 mg, po administered as single oral dose by HPLC analysis; assay type: ADME, organism-based; details: in vivo
Plasma [3] = assay: Drug level in human plasma assessed as compound formation treated with [14C]brivanib alaninate at 800 mg, po administered as single dose via gavage measured after 4 hrs by HPLC analysis; assay type: ADME, organism-based; details: in vivo
Plasma [4] = assay: Drug level in human plasma assessed as compound formation treated with [14C]brivanib alaninate at 800 mg, po administered as single dose via gavage measured after 8 hrs by HPLC analysis; assay type: ADME, organism-based; details: in vivo
Plasma [5] = assay: Drug level in human plasma assessed as compound formation treated with [14C]brivanib alaninate at 800 mg, po administered as single dose via gavage measured after 12 hrs by HPLC analysis; assay type: ADME, organism-based; details: in vivo
Rattus norvegicus [6] = assay: AUC (0 to 6 hrs) Sprague-Dawley rat plasma treated with [14C]brivanib alaninate at 100 mg/kg, po administered as single oral dose by HPLC analysis; assay type: ADME, organism-based; details: in vivo
Cynomolgus monkey [7] = assay: AUC (0 to 12 hrs) cynomolgus monkey plasma treated with [14C]brivanib alaninate at 10 mg/kg, po administered as single oral dose by HPLC analysis; assay type: ADME, organism-based, Macaca fascicularis; details: in vivo
Homo sapiens [8] = assay: AUC (0 to 12 hrs) human plasma treated with [14C]brivanib alaninate at 800 mg, po administered as single oral dose by HPLC analysis; assay type: ADME, organism-based; details: in vivo
[9] = Drug excretion in Sprague-Dawley rat feces treated with [14C]brivanib alaninate at 100 mg/kg, po administered as single dose via gavage by HPLC analysis; assay type: ADME, organism-based; details: in vivo
[10] = Drug excretion in bile duct-cannulated rat bile treated with [14C]brivanib alaninate at 100 mg/kg, po administered as single dose via gavage by HPLC analysis; assay type: ADME, organism-based; details: in vivo
[11] = Drug excretion in cynomolgus monkey urine treated with [14C]brivanib alaninate at 10 mg/kg, po administered as single dose via gavage by HPLC analysis; assay type: ADME, organism-based, Macaca fascicularis; details: in vivo
[12] = Drug excretion in cynomolgus monkey feces treated with [14C]brivanib alaninate at 10 mg/kg, po administered as single dose via gavage by HPLC analysis; assay type: ADME, organism-based, Macaca fascicularis; details: in vivo
[13] = Drug excretion in bile duct-cannulated cynomolgus monkey bile treated with [14C]brivanib alaninate at 10 mg/kg, po administered as single dose via gavage by HPLC analysis; assay type: ADME, organism-based, Macaca fascicularis; details: in vivo
[14] = Drug excretion in human urine treated with [14C]brivanib alaninate at 800 mg, po administered as single dose […] by HPLC analysis; assay type: ADME, organism-based; details: in vivo
[15] = Drug excretion in human feces treated with [14C]brivanib alaninate at 800 mg, po administered as single dose […] by HPLC analysis; assay type: ADME, organism-based; details: in vivo
Plasma [16] = assay: Drug level in Sprague-Dawley rat plasma assessed as compound formation treated with [14C]brivanib alaninate at 100 mg/kg, po administered as single dose via gavage measured after 1 hr by HPLC analysis; assay type: ADME, organism-based; details: in vivo
Plasma [17] = assay: Drug level in Sprague-Dawley rat plasma assessed as compound formation treated with [14C]brivanib alaninate at 100 mg/kg, po administered as single dose via gavage measured after 2 hrs by HPLC analysis; assay type: ADME, organism-based; details: in vivo
Plasma [18] = assay: Drug level in Sprague-Dawley rat plasma assessed as compound formation treated with [14C]brivanib alaninate at 100 mg/kg, po administered as single dose via gavage measured after 6 hrs by HPLC analysis; assay type: ADME, organism-based; details: in vivo
Plasma [19] = assay: Drug level in cynomolgus monkey plasma assessed as compound formation treated with [14C]brivanib alaninate at 10 mg/kg, po administered as single dose via gavage measured after 1 hr by HPLC analysis; assay type: ADME, organism-based, Macaca fascicularis; details: in vivo
Plasma [20] = assay: Drug level in cynomolgus monkey plasma assessed as compound formation treated with [14C]brivanib alaninate at 10 mg/kg, po administered as single dose via gavage measured after 2 hrs by HPLC analysis; assay type: ADME, organism-based, Macaca fascicularis; details: in vivo
Plasma [21] = assay: Drug level in cynomolgus monkey plasma assessed as compound formation treated with [14C]brivanib alaninate at 10 mg/kg, po administered as single dose via gavage measured after 4 hrs by HPLC analysis; assay type: ADME, organism-based, Macaca fascicularis; details: in vivo
Plasma [22] = assay: Drug level in cynomolgus monkey plasma assessed as compound formation treated with [14C]brivanib alaninate at 10 mg/kg, po administered as single dose via gavage measured after 6 hrs by HPLC analysis; assay type: ADME, organism-based, Macaca fascicularis; details: in vivo
Plasma [23] = assay: Drug level in cynomolgus monkey plasma assessed as compound formation treated with [14C]brivanib alaninate at 10 mg/kg, po administered as single dose via gavage measured after 12 hrs by HPLC analysis; assay type: ADME, organism-based, Macaca fascicularis; details: in vivo
Plasma [24] = assay: Drug level in human plasma assessed as compound formation treated with [14C]brivanib alaninate at 800 mg, po administered as single dose via gavage measured after 1 hr by HPLC analysis; assay type: ADME, organism-based; details: in vivo
Plasma [25] = assay: Drug level in human plasma assessed as compound formation treated with [14C]brivanib alaninate at 800 mg, po administered as single dose via gavage measured after 2 hrs by HPLC analysis; assay type: ADME, organism-based; details: in vivo
Cynomolgus monkey [26] = assay: Drug uptake in cynomolgus monkey plasma treated with [14C]brivanib alaninate assessed as AUC (0 to 12 hrs) of total radio activity at 10 mg/kg, po administered as single oral dose by HPLC analysis; assay type: ADME, organism-based, Macaca fascicularis; details: in vivo
Rattus norvegicus [27] = assay: Drug uptake in Sprague-Dawley rat plasma treated with [14C]brivanib alaninate assessed as AUC (0 to 6 hrs) of total radio activity at 100 mg/kg, po administered as single oral dose by HPLC analysis; assay type: ADME, organism-based; details: in vivo
[28] = Drug level in bile duct-cannulated rat bile treated with [14C]brivanib alaninate at 100 mg/kg, po administered as single dose via gavage by mass spectrometry; assay type: ADME, organism-based; details: in vivo
[29] = Drug excretion in Sprague-Dawley rat urine treated with [14C]brivanib alaninate at 100 mg/kg, po administered as single dose via gavage by HPLC analysis; assay type: ADME, organism-based; details: in vivo
Plasma [30] = assay: Drug level in Sprague-Dawley rat plasma assessed as compound formation treated with [14C]brivanib alaninate at 100 mg/kg, po administered as single dose via gavage measured after 1 hr by mass spectrometry; assay type: ADME, organism-based; details: in vivo
Plasma [31] = assay: Drug level in Sprague-Dawley rat plasma assessed as compound formation treated with [14C]brivanib alaninate at 100 mg/kg, po administered as single dose via gavage measured after 2 hrs by mass spectrometry; assay type: ADME, organism-based; details: in vivo
Plasma [32] = assay: Drug level in Sprague-Dawley rat plasma assessed as compound formation treated with [14C]brivanib alaninate at 100 mg/kg, po administered as single dose via gavage measured after 6 hrs by mass spectrometry; assay type: ADME, organism-based; details: in vivo
[33] = biological target: Vascular endothelial growth factor receptor 2 (Homo sapiens, UniProt P35968); assay: Inhibition of human recombinant VEGFR-2
[34] = biological target: Fibroblast growth factor receptor 1 (Homo sapiens, UniProt P11362); assay: Inhibition of human recombinant FGFR-1
[35] = Drug level in cynomolgus monkey urine treated with [14C]brivanib alaninate at 10 mg/kg, po administered as single dose via gavage by mass spectrometry; assay type: ADME, organism-based, Macaca fascicularis; details: in vivo

Sequence of Fibroblast growth factor receptor 1 (P11362 whole entry): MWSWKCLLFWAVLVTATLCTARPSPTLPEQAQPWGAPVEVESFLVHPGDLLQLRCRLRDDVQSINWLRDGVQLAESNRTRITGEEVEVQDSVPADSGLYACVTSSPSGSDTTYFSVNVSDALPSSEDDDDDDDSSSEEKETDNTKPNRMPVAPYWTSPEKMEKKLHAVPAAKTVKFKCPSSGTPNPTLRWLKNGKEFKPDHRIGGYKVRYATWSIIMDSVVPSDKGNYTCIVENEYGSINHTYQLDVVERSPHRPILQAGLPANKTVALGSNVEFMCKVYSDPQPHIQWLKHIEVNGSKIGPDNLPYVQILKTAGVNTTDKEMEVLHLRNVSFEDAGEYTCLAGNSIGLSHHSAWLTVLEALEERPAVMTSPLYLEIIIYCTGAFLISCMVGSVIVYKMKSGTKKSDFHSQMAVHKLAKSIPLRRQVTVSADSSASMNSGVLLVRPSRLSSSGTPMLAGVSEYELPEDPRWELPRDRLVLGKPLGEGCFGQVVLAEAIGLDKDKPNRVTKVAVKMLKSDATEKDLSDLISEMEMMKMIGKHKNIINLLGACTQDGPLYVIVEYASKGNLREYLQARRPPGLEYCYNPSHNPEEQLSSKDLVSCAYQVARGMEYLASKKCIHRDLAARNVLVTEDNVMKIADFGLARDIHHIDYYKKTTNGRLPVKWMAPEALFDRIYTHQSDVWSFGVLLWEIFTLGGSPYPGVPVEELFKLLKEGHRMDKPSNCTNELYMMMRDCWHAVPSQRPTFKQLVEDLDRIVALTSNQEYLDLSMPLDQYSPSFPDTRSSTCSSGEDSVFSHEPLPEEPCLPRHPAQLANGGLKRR
Sequence of Vascular endothelial growth factor receptor 2 (P35968 whole entry): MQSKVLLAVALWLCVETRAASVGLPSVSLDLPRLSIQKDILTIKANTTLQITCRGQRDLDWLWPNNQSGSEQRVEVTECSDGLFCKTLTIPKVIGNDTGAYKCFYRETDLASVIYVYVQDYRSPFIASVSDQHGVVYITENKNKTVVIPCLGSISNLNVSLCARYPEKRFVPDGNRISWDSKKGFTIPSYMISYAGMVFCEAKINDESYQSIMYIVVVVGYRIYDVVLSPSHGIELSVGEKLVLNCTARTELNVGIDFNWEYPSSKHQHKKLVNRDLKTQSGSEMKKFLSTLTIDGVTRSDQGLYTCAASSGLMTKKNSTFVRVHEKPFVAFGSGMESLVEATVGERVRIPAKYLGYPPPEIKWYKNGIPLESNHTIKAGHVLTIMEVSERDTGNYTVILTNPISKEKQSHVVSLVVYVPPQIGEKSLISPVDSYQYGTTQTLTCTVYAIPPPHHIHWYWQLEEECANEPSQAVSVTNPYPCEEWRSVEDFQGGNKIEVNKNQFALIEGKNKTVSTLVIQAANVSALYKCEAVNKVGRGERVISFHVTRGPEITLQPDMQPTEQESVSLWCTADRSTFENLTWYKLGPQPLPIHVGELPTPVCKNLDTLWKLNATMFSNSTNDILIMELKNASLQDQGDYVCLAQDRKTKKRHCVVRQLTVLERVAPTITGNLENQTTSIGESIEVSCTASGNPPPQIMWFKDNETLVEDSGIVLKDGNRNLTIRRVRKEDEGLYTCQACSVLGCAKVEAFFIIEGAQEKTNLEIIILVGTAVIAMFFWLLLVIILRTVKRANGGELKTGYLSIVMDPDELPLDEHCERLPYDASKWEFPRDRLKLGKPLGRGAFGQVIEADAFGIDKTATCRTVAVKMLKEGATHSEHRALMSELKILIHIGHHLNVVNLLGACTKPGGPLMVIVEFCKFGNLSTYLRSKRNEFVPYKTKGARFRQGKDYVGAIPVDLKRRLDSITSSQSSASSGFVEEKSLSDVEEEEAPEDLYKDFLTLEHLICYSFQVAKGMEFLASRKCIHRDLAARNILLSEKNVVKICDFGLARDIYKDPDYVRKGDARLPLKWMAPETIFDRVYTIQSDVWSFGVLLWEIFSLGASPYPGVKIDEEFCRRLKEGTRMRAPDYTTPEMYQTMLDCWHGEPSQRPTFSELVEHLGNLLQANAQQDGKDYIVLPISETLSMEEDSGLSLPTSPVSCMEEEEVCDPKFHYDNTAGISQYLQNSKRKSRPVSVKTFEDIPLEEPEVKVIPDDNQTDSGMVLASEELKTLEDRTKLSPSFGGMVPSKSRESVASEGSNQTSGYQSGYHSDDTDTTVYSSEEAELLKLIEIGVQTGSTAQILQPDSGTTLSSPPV

AUC metabolite/AUC radiolabel (Homo sapiens [2]) | Compound recovery (Plasma [3]) | Compound recovery (Plasma [4]) | Compound recovery (Plasma [5]) | AUC (Rattus norvegicus [6]) | Compound recovery [9] | Compound recovery [10] | Compound recovery [11] | Compound recovery [12] | Compound recovery [13] | Compound recovery [14] | Compound recovery [15] | Compound recovery (Plasma [19]) | Compound recovery (Plasma [20]) | Compound recovery (Plasma [21]) | Compound recovery (Plasma [22]) | Compound recovery (Plasma [23]) | Compound recovery (Plasma [24]) | Compound recovery (Plasma [25]) | Compound recovery [29] | Compound | also measured
1.8% | 3.6% | 1.7% | 4.1% | 5443.1 ugequiv/l.hr | 4.8% | 1% | 4.9% | 2.4% | 10.3% | 3.6% | 8.3% | 3% | 1.5% | 3.5% | 7.9% | 3% | 0.7% | 2.9% | – | Cc1c(OC[C@@H](C)OS(=O)(=O)O)cn2ncnc(Oc3ccc4[nH]c(CO)cc4c3F)c12 | Compound recovery [1]: metabolite_detected; AUC (Cynomolgus monkey [7]): 3272.2 ugequiv/l.hr; AUC (Homo sapiens [8]): 1202.5 ugequiv/l.hr; Compound recovery (Plasma [16]): 5.8%; Compound recovery (Plasma [17]): 3.1%; Compound recovery (Plasma [18]): 4.3%; AUC metabolite/AUC radiolabel (Cynomolgus monkey [26]): 4.7%; AUC metabolite/AUC radiolabel (Rattus norvegicus [27]): 3.9%
– | metabolite_not_detected | metabolite_not_detected | metabolite_not_detected | – | metabolite_not_detected | – | 0.3% | metabolite_not_detected | 0.6% | 1.1% | metabolite_not_detected | 7.2% | 2.2% | 1.9% | 0.9% | metabolite_not_detected | 2.6% | 2.3% | metabolite_not_detected | Cc1cc2c(F)c(Oc3ncnn4cc(OC[C@@H](C)O[C@@H]5O[C@H](C(=O)O)[C@@H](O)[C@H](O)[C@H]5O)c(C)c34)ccc2[nH]1 | Compound recovery [28]: metabolite_detected; Compound recovery (Plasma [30]): metabolite_detected; Compound recovery (Plasma [31]): metabolite_detected; Compound recovery (Plasma [32]): metabolite_detected
6.3% | 11.4% | 4.9% | 4.6% | 12825.3 ugequiv/l.hr | 12.8% | 0.9% | 1.1% | 22% | 10.5% | 0.4% | 7.4% | 3.1% | 6.4% | 8.6% | 6.9% | 3.5% | 6.8% | 7.6% | 0.5% | Cc1c(OC[C@@H](C)O)cn2ncnc(Oc3ccc4[nH]c(C(=O)O)cc4c3F)c12 | AUC (Cynomolgus monkey [7]): 5006 ugequiv/l.hr; AUC (Homo sapiens [8]): 4119.3 ugequiv/l.hr; IC50 [33]: > 30 µM; IC50 [34]: > 30 µM; Compound recovery (Plasma [16]): 5.1%; Compound recovery (Plasma [17]): 5.3%; Compound recovery (Plasma [18]): 5.3%; AUC metabolite/AUC radiolabel (Cynomolgus monkey [26]): 7.2%; AUC metabolite/AUC radiolabel (Rattus norvegicus [27]): 9.2%
– | – | – | – | – | 5.7% | 2.5% | – | 4% | 4.9% | 2.4% | 26.6% | – | – | – | – | – | – | – | metabolite_not_detected | Cc1c(OC[C@@H](C)OS(=O)(=O)O)cn2ncnc(Oc3ccc4[nH]c(C(=O)O)cc4c3F)c12 | Compound recovery [35]: metabolite_detected
